Experimental data as given in ChEMBL document CHEMBL1201862, “PubChem BioAssay data set” (2004).
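Briefly, cells in 96-well plates were exposed to five compound concentrations for 48 h, and endpoints were estimated by linear interpolation. GI50 is the concentration that inhibits growth by half.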 Active and inactive are the calls of the source. No stated cut-off is given here; in the data, active = GI50 up to about 1.1 µM and inactive = higher.

How the values were obtained:
Assay in all cases: NCI tumour cell line growth inhibition, 48 h
SN12C = tested on: SN12C
IGROV-1 = tested on: IGROV-1
SNB-75 = tested on: SNB-75
K562 = tested on: K562
786-0 = tested on: 786-0
MCF7 = tested on: MCF7
UO-31 = tested on: UO-31
MOLT-4 = tested on: MOLT-4
HCC 2998 = tested on: HCC 2998
TK-10 = tested on: TK-10
DU-145 = tested on: DU-145
SNB-19 = tested on: SNB-19
SK-OV-3 = tested on: SK-OV-3
KM12 = tested on: KM12
LOX IMVI = tested on: LOX IMVI
RPMI-8226 = tested on: RPMI-8226
NCI-H460 = tested on: NCI-H460
HL-60 = tested on: HL-60
HCT-116 = tested on: HCT-116

Row | Compound | GI50 (SN12C) | GI50 (IGROV-1) | GI50 (SNB-75) | GI50 (K562) | GI50 (786-0) | GI50 (MCF7) | GI50 (UO-31) | GI50 (MOLT-4) | GI50 (HCC 2998) | GI50 (TK-10) | GI50 (DU-145) | GI50 (SNB-19) | GI50 (SK-OV-3) | GI50 (KM12) | GI50 (LOX IMVI) | GI50 (RPMI-8226) | GI50 (NCI-H460) | GI50 (HL-60) | GI50 (HCT-116)
1 | CC#Cc1cc2c(cc1O)CC[C@@H]1[C@@H]2CC[C@]2(C)[C@@H](O)CC[C@@H]12 | 6.15 µM (inactive) | 4.54 µM (inactive) | 1.4 µM (inactive) | 0.344 µM (active) | 1.58 µM (inactive) | 0.685 µM (active) | 9.23 µM (inactive) | 0.621 µM (active) | 5.89 µM (inactive) | 19.9 µM (inactive) | 3.43 µM (inactive) | 2.4 µM (inactive) | 1.81 µM (inactive) | 3.08 µM (inactive) | 0.94 µM (active) | 1.61 µM (inactive) | 0.475 µM (active) | 0.311 µM (active) | –
2 | CNc1ncnc2c1nnn2C | > 100 µM (inactive) | > 100 µM (inactive) | > 100 µM (inactive) | > 100 µM (inactive) | > 100 µM (inactive) | > 100 µM (inactive) | > 100 µM (inactive) | > 100 µM (inactive) | > 100 µM (inactive) | > 100 µM (inactive) | > 100 µM (inactive) | > 100 µM (inactive) | > 100 µM (inactive) | > 100 µM (inactive) | > 100 µM (inactive) | > 100 µM (inactive) | – | > 100 µM (inactive) | > 100 µM (inactive)
3 | C[C@@H]1CCC2[C@@H](C)[C@H](O[C@H]3O[C@@H]4O[C@@]5(C)CCC6[C@H](C)CCC([C@H]3C)[C@]64OO5)O[C@@H]3O[C@@]4(C)CCC1[C@@]23OO4 (some centres not stated) | 0.186 µM (active) | 0.931 µM (active) | 0.188 µM (active) | 0.0202 µM (active) | 0.361 µM (active) | 0.0925 µM (active) | 0.0559 µM (active) | 0.0546 µM (active) | 0.813 µM (active) | 0.205 µM (active) | 1.93 µM (inactive) | 3.17 µM (inactive) | 0.452 µM (active) | 0.0317 µM (active) | 0.0258 µM (active) | 0.0127 µM (active) | 0.0675 µM (active) | 0.0243 µM (active) | 0.0177 µM (active)
4 | COc1cc(CNC(=O)CCCCCCCCCCSC#N)ccc1O | – | 4.59 µM (inactive) | 11 µM (inactive) | 6.9 µM (inactive) | 17.8 µM (inactive) | 17.1 µM (inactive) | 3.52 µM (inactive) | 3.94 µM (inactive) | > 100 µM (inactive) | 20.5 µM (inactive) | 17.8 µM (inactive) | 19.7 µM (inactive) | 10.6 µM (inactive) | 5.83 µM (inactive) | 12 µM (inactive) | 14.6 µM (inactive) | 13.3 µM (inactive) | 5.69 µM (inactive) | 14.9 µM (inactive)
5 | CCOc1cc(/C=C2/C(C)=NN(c3cccc(Cl)c3)/C2=N/c2nc3ccccc3s2)ccc1O | – | 29.6 µM (inactive) | 34.8 µM (inactive) | 40.4 µM (inactive) | 32.1 µM (inactive) | 28.5 µM (inactive) | 19.4 µM (inactive) | 32.7 µM (inactive) | 14.3 µM (inactive) | 36.9 µM (inactive) | 46.1 µM (inactive) | – | 23 µM (inactive) | – | 35.9 µM (inactive) | 38.3 µM (inactive) | 25.5 µM (inactive) | 3.3 µM (inactive) | 24.2 µM (inactive)
6 | C/C=C1/CC(C)C(C)(O)C(=O)OCC2C(O)CN3CCC(OC1=O)C23 (configuration not stated) | > 100 µM (inactive) | > 100 µM (inactive) | > 100 µM (inactive) | > 100 µM (inactive) | > 100 µM (inactive) | > 100 µM (inactive) | – | > 100 µM (inactive) | > 100 µM (inactive) | > 100 µM (inactive) | > 100 µM (inactive) | > 100 µM (inactive) | > 100 µM (inactive) | > 100 µM (inactive) | > 100 µM (inactive) | > 100 µM (inactive) | > 100 µM (inactive) | > 100 µM (inactive) | > 100 µM (inactive)
7 | Cc1cc2[nH]c(Cl)c(/C=C3\C(=O)Nc4ccccc43)c2cc1O | 3.38 µM (inactive) | 1.8 µM (inactive) | 3.45 µM (inactive) | 0.957 µM (active) | 5.4 µM (inactive) | 1.88 µM (inactive) | 4.45 µM (inactive) | 1.46 µM (inactive) | 4.2 µM (inactive) | 9.71 µM (inactive) | 2.86 µM (inactive) | 3.27 µM (inactive) | 4.83 µM (inactive) | 2.92 µM (inactive) | 3.16 µM (inactive) | 2.7 µM (inactive) | 3.91 µM (inactive) | 1.14 µM (inactive) | 2.8 µM (inactive)
8 | N=C(N)NS(=O)(=O)c1ccc(NNc2c3ccccc3nc3c(C(=O)Nc4ccc(S(N)(=O)=O)cc4)cccc23)cc1 | 43.8 µM (inactive) | 28.8 µM (inactive) | 26.4 µM (inactive) | 19.9 µM (inactive) | 21.7 µM (inactive) | 8.47 µM (inactive) | > 100 µM (inactive) | 5.75 µM (inactive) | 19.5 µM (inactive) | > 100 µM (inactive) | 94 µM (inactive) | 22.9 µM (inactive) | > 100 µM (inactive) | 30.8 µM (inactive) | 10.4 µM (inactive) | 17.8 µM (inactive) | 19.7 µM (inactive) | 23.9 µM (inactive) | 28.9 µM (inactive)
9 | COc1ccc(/C=C/C(=N/NC(=O)N/N=C(/C=C/c2ccc(OC)cc2)C(C)C)C(C)C)cc1 | > 100 µM (inactive) | > 100 µM (inactive) | > 100 µM (inactive) | 37.8 µM (inactive) | > 100 µM (inactive) | 64.6 µM (inactive) | 76.2 µM (inactive) | 26.1 µM (inactive) | 38.7 µM (inactive) | 50 µM (inactive) | 80.2 µM (inactive) | > 100 µM (inactive) | > 100 µM (inactive) | 51.2 µM (inactive) | > 100 µM (inactive) | 33.2 µM (inactive) | 48.3 µM (inactive) | 33 µM (inactive) | 66.1 µM (inactive)
10 | CCC1=NC(C(F)(F)F)(C(F)(F)F)N=C(/N=C(/N)N(C)C(C(C)C)P(=O)(OC(C)C)OC(C)C)O1 (configuration not stated) | > 100 µM (inactive) | > 100 µM (inactive) | > 100 µM (inactive) | > 100 µM (inactive) | > 100 µM (inactive) | > 100 µM (inactive) | > 100 µM (inactive) | > 100 µM (inactive) | > 100 µM (inactive) | > 100 µM (inactive) | > 100 µM (inactive) | > 100 µM (inactive) | > 100 µM (inactive) | > 100 µM (inactive) | > 100 µM (inactive) | > 100 µM (inactive) | > 100 µM (inactive) | > 100 µM (inactive) | > 100 µM (inactive)
11 | CC1=NN(c2nc(N)nc(CS(C)(=O)=O)n2)C(C)(C)C1 | – | > 100 µM (inactive) | > 100 µM (inactive) | > 100 µM (inactive) | > 100 µM (inactive) | > 100 µM (inactive) | > 100 µM (inactive) | > 100 µM (inactive) | > 100 µM (inactive) | > 100 µM (inactive) | > 100 µM (inactive) | > 100 µM (inactive) | > 100 µM (inactive) | > 100 µM (inactive) | > 100 µM (inactive) | > 100 µM (inactive) | > 100 µM (inactive) | > 100 µM (inactive) | > 100 µM (inactive)
12 | N=c1c2c(ncn1N)Oc1c(c(-c3ccccc3)nn1-c1ccccc1)C2c1ccc(Cl)cc1 (configuration not stated) | 1.79 µM (inactive) | 1.43 µM (inactive) | 1.5 µM (inactive) | 0.731 µM (active) | 1.63 µM (inactive) | 1.44 µM (inactive) | 1.64 µM (inactive) | 0.895 µM (active) | 0.762 µM (active) | 1.76 µM (inactive) | 2.01 µM (inactive) | 1.47 µM (inactive) | 1.85 µM (inactive) | 1.6 µM (inactive) | 1.48 µM (inactive) | 2.35 µM (inactive) | 1.42 µM (inactive) | 0.408 µM (active) | 1.49 µM (inactive)
13 | CCCC(=O)Nc1cn(COC)c(C(=O)N2C[C@H]3C[C@@]34C2=CC(=O)c2[nH]cc(C)c24)n1 | 11.5 µM (inactive) | 9.93 µM (inactive) | 4.73 µM (inactive) | 5.31 µM (inactive) | 2.79 µM (inactive) | 1.32 µM (inactive) | 10.6 µM (inactive) | 0.553 µM (active) | 2.89 µM (inactive) | 10.1 µM (inactive) | 1.38 µM (inactive) | 18.1 µM (inactive) | 16.7 µM (inactive) | > 5 µM (inactive) | 7.14 µM (inactive) | 6.04 µM (inactive) | 3.24 µM (inactive) | 0.728 µM (active) | 4.68 µM (inactive)
14 | CC(=O)O[C@H](C[C@@H](C)[C@H]1C(=O)[C@H](O)[C@@]2(C)C3CC[C@H]4C(C)(C)[C@@H](OC5OCC(O)C(O)C5O)CC[C@@]45C[C@@]35CC[C@]12C)[C@@H]1OC1(C)C (some centres not stated) | 18.9 µM (inactive) | 16.2 µM (inactive) | 12.1 µM (inactive) | 0.14 µM (active) | 16.6 µM (inactive) | 17.9 µM (inactive) | 22.9 µM (inactive) | – | 16.3 µM (inactive) | 16.3 µM (inactive) | 19 µM (inactive) | 20.1 µM (inactive) | 12.7 µM (inactive) | 22.2 µM (inactive) | 30.3 µM (inactive) | 12.4 µM (inactive) | 16.9 µM (inactive) | 2.21 µM (inactive) | 18.1 µM (inactive)
